According to patent publication US4914215A, “Aminopropyl thiophene compounds” (The United States of America as represented by the United …, priority 1989, dated 1990):

Key:
[1] = test system: brain; assay: Tissue distribution of 5-halothiophene-2-isopropylamines in Fisher rats; format: in vivo; settings: in words
From the text: 5-HALOTHIOPHENE-2-ISOPROPYLAMINES
Mean Brian. % Dose/gm (Mean Brain:Blood)

[2] = test system: lungs; settings: versus HIPDM; cited from earlier work
[3] = test system: brain; settings: five minutes after administration; versus HIPDM; cited from earlier work

Structure (SMILES)	brain retention [1]	brain uptake [1]	brain-to-blood ratios [1]	clearance of the lungs relative to HIPDM [2]	amount of activity in the brain relative to HIPDM [3]
CC(N)Cc1ccc([125I])s1 (stereo not shown) [Compound I-125, 2-(2-aminopropyl)-5-radiohalothiophene]	good retention	high brain uptake	high brain-to-blood ratios	–	–
CC(C)NC(C)Cc1ccc(I)cc1 (stereo not shown) [IMP, N-isopropyl-p-iodoamphetamine]	–	–	–	faster	almost twice
CC(N)Cc1ccc([82Br])s1 (stereo not shown) [Br-82, 2-(2-aminopropyl)-5-bromothiophene]	good brain uptake and retention	good brain uptake	–	–	–
